US5401490A, “Markers of tissue hypoxia” (priority 1989, dated 1995)

Assays:
[1] = system: BALB/C mice bearing subcutaneous EMT-6 tumors; assay: Tissue distribution of radioactivity after intravenous injection; type: in vivo; conditions: for Tissue to Blood Ratio, Intestine / Tissue to Blood Ratio, Kidney / Tissue to Blood Ratio, Liver / Tissue to Blood Ratio, Lung / Tissue to Blood Ratio, Muscle / Tissue to Blood Ratio, Stomach / Tissue to Blood Ratio, Tumor: i.v.
From the text: Tables 1 and 2 show the percent of injected IAZG and IAZA respectively per gram of wet tissue for selected tissues excised from BALB/C mice bearing EMT-6 tumors. This tumor model is known to have a high hypoxic fraction (0.33) (16). […] Hepatobiliary excretion may play a role in blood clearance as evidenced by elevated liver radioactivity and the appearance of activity in the intestine. Some oxidative or reductive metabolites of the 2-nitroimidazoles may also become bound to liver tissue, as was postulated in an in vivo study with ^14 C-MISO (6). This supposition is supported by the persistence of liver radioactivity at longer time periods. […] At 8 and 24 hours thyroid levels of IAZG are 7.2 and 30.9% of the total body activity and for IAZA they are 7.9 and 33.8% of total body activity. EXAMPLE 11 TISSUE DISTRIBUTION AND EXCRETION Tumor propagation of EMT-6 tumors in BALB/C mice was accomplished by subcutaneous injection of a cell suspension (10^5 cells in 0.1 mL) as described previously (10). Tumors reached about 10 mm in diameter (≈0.5 g) at 12 to 14 days, at which time each animal was given a bolus intravenous injection of ^125 I-labelled test drug via the tail vein (40 to 60 kBq in 0.1 mL). At set time periods the animals were asphyxiated with CO2 and exsanguinated via cardiac puncture. Tissues were dissected, weighed wet into vials and counted for ^125 I-activity. Whole-body activity was determined by summation of total activity in tissues and in residual carcass, and blood activity was determined from the blood aliquot, assuming blood to be 6.5% of the total body weight. EXAMPLE 12 Male BALB/c mice (20-25 g) were inoculated subcutaneously in the left flank with a suspension of murine EMT-6 cells (10^5 cells in 0.1 mL) (14). After 12 to 14 days, when the tumors reached the desired size (8-10 mm diameter), each mouse received a single intravenous (iv) injection of ^125 I-IAZA (59 kBq in 0.1 mL). […] Heart, lung, liver, spleen, muscle, bone, thyroid, kidney, stomach, small intestine, tail, tumor and skin were removed upon necropsy, weighed and analyzed for ^125 I using a Beckman Model 8000 gamma scintillation counter. The remaining carcass mass was also weighed and radioassayed.

EMT-6 cells [2] = assay: Hypoxic cell radiosensitizing ability (post-irradiation survival); type: cell-based, mouse
Method: Cell cultures were examined under oxic (air) and hypoxic incubation, with various concentrations of test drug, and at several doses of radiation.

EMT-6 cells [3] = assay: Cell uptake / binding to the acid insoluble (macromolecular) fraction of EMT-6 cells; type: cell-based, mouse
Method: The binding of IAZG to the acid precipitable fraction of EMT-6 cells in vitro is dependent on the degree of hypoxia as shown in FIG. 4. […] To assess the relative efficiency of uptake of the test compounds, the initial binding rate in terms of pmol/10^6 cells/h was determined at several different concentrations. […] This is the highest binding rate measured to date for any 2-nitroimidazole derivative and is 4 to 8 times greater than MISO.
Initial binding rates were measured (FIG. 8) at four concentrations of IAZA (3, 10, 30 and 100 μM), using normally oxygenated and hypoxic EMT-6 cell cultures as described previously (13). Similar studies at the same concentration of misonidazole were used as controls.
EXAMPLE 8 CELL UPTAKE STUDIES
The uptake of test drugs into EMT-6 cell suspensions, under oxic and hypoxic conditions, was determined as described previously (18, 13). The data were analyzed in terms of drug binding to the macromolecular fraction at various times and at various test drug concentrations (FIG. 4). The initial binding rate, in units of pmol/10^6 cells per hour for each drug, was determined from the binding data (FIG. 5).

[4] = Long term storage in solution; type: physicochemical
From the text: Both IAZA and IAZG are synthesised, in high yield, from commercial precursors (FIG. 1) and undergo high-yield isotope exchange reactions with radioiodine to produce the required radiolabelled test compounds. […] Therefore, the compounds were stored as a dry residue in multidose vials under refrigeration and were reconstituted with the appropriate solvent just prior to use. IAZP is similarly synthesised. It will be known to those skilled in the art that other radio halogens may be similarly employed in the exchange reaction.

## O=[N+]([O-])c1nccn1[C@@H]1O[C@H](CI)[C@H](O)[C@H](O)[C@H]1O [IAZG, 1-(6-iodo-6-deoxy-β-D-galactopyranosyl)-2-nitroimidazole]
[1]; 0.25 h
  Tissue to Blood Ratio, Intestine: 3.65
  Tissue to Blood Ratio, Kidney: 8.58
  Tissue to Blood Ratio, Liver: 3.00
  Tissue to Blood Ratio, Lung: 1.51
  Tissue to Blood Ratio, Muscle: 0.72
  Tissue to Blood Ratio, Stomach: 1.79
  Tissue to Blood Ratio, Tumor: 0.95
[1]; 0.50 h
  Tissue to Blood Ratio, Intestine: 3.19
  Tissue to Blood Ratio, Kidney: 8.07
  Tissue to Blood Ratio, Liver: 2.66
  Tissue to Blood Ratio, Lung: 1.31
  Tissue to Blood Ratio, Muscle: 0.63
  Tissue to Blood Ratio, Stomach: 1.92
  Tissue to Blood Ratio, Tumor: 1.31
[1]; 1 h
  Tissue to Blood Ratio, Intestine: 1.42
  Tissue to Blood Ratio, Kidney: 5.56
  Tissue to Blood Ratio, Liver: 1.82
  Tissue to Blood Ratio, Lung: 0.90
  Tissue to Blood Ratio, Muscle: 0.48
  Tissue to Blood Ratio, Stomach: 1.64
  Tissue to Blood Ratio, Tumor: 1.47
[1]; 2 h
  Tissue to Blood Ratio, Intestine: 1.48
  Tissue to Blood Ratio, Kidney: 5.06
  Tissue to Blood Ratio, Liver: 2.55
  Tissue to Blood Ratio, Lung: 1.13
  Tissue to Blood Ratio, Muscle: 0.62
  Tissue to Blood Ratio, Stomach: 2.61
  Tissue to Blood Ratio, Tumor: 1.45
[1]; 4 h
  Tissue to Blood Ratio, Intestine: 1.04
  Tissue to Blood Ratio, Kidney: 4.00
  Tissue to Blood Ratio, Liver: 1.51
  Tissue to Blood Ratio, Lung: 1.16
  Tissue to Blood Ratio, Muscle: 0.49
  Tissue to Blood Ratio, Stomach: 1.85
  Tissue to Blood Ratio, Tumor: 1.56
[1]; 8 h
  Tissue to Blood Ratio, Intestine: 1.05
  Tissue to Blood Ratio, Kidney: 2.47
  Tissue to Blood Ratio, Liver: 1.24
  Tissue to Blood Ratio, Lung: 0.98
  Tissue to Blood Ratio, Muscle: 0.36
  Tissue to Blood Ratio, Stomach: 2.50
  Tissue to Blood Ratio, Tumor: 1.34
[1]; 8 hours
  thyroid levels: 7.2 % of the total body activity
[1]; 24 h
  Tissue to Blood Ratio, Intestine: 0.83
  Tissue to Blood Ratio, Kidney: 1.52
  Tissue to Blood Ratio, Liver: 1.32
  Tissue to Blood Ratio, Lung: 1.26
  Tissue to Blood Ratio, Muscle: 0.38
  Tissue to Blood Ratio, Stomach: 0.87
  Tissue to Blood Ratio, Tumor: 1.41
[1]; 24 hours
  thyroid levels: 30.9 % of the total body activity
[1]; at 4 h
  injected dose in tumor at maximal tumor to blood ratio: 0.23 % of the injected dose
  maximal tumor to blood ratio: 1.56
[1]; longer periods (>4 h)
  deiodination (increase in thyroid radioactivity): evidence of deiodination at longer periods (>4 h)
EMT-6 cells [2]; 50 μM, 90% cell kill, hypoxic
  sensitizer enhancement ratio (SER): about 1.8
EMT-6 cells [2]; in words
  sensitisation to lethal effects of ionising radiation: sensitise these cells to the lethal effects of ionising radiation
EMT-6 cells [2]; vs azomycin nucleoside class
  in vitro radiosensitizer efficiency, comparison: most efficient in vitro radiosensitizer of the azomycin nucleoside class produced to date
EMT-6 cells [3]
  binding with time: appears to increase linearly with time
EMT-6 cells [3]; 10 μM, various oxygen levels
  oxygen dependence of uptake/binding: greatest uptake of IAZG occurs under nitrogen incubation with a decrease in the binding rate as the oxygen concentration to which the cells are exposed is increased
EMT-6 cells [3]; hypoxic, vs IAZA or MISO
  initial binding rate, comparison: higher binding rate than IAZA or MISO
[4]
  stability on long term storage in solution: some decomposition of the pure compounds
